What was measured:
E-selectin = assay: ELISA: inhibition of E-selectin-IgG chimera binding to 2,3 sLe^x glycolipid; parameters: species or system human
From the text: (§1) An ELISA assay is preferably used that employs recombinant fusion proteins composed of extracellular portions of the human selectins joined to human immunoglobulin heavy chain CH3, CH2, and hinge regions. See, for example, Walz et al., Science (1990) 250:1132; Aruffo et al., Cell (1991) 67:35; Aruffo et al., Proc. Natl. Acad. Sci. USA. (1992) 89:2292. The assay is well known in the art, and generally consists of the following three steps:
(§2) I. 2,3 sLe^x glycolipid (25 picomole/well) was transferred into microtiter wells as solutions and then evaporated off. Excess, which remained unattached, was washed off with water. The wells were then blocked with 5% BSA at room temperature for an hour and then washed with PBS containing 1 mM calcium.
(§3) II. Preparation of "multivalent" receptor of the Selectin-lgG chimera was carried out by combining the respective chimera (1 μg/mL) with biotin labelled goat F(ab')2 anti-human IgG (Fc specific) and streptavidin-alkaline phosphatase diluted 1:1000 in 1% BSA-PBS (1 mM calcium) and incubating at 37° C. for 15 min. This allowed the soluble multivalent receptor complex to form. III. Potential inhibitors such as the compounds of formula I or II were allowed to react with the soluble receptor at 37° C. for 45 min. This test assumes that optimal binding, between the soluble phase receptor complex and the inhibitor (non natural ligand), would have occurred within this time frame. This solution was then placed in the microtiter wells that were prepared in step I. The plate was incubated at 37° C. for 45 minutes to allow the soluble receptor to bind to its natural ligand. In the presence of a strong inhibitor only a few receptors should be free to bind to the microtiter plate coated with the natural ligand.
(§4) The positive control is the signal produced by the soluble receptor when it is allowed to react with 2,3 sLe^x glycolipid in the microtiter wells in the absence of any inhibitor. This positive control was considered 100% binding. The signal produced by the receptor that had been previously treated with an inhibitor (recorded as O.D.), was divided by the signal produced by the positive control and multiplied by 100 to calculate the % receptor bound to the well in the presence of the inhibitor. The reciprocal of this number is the % inhibition.
as §1, with “was employed” for “is preferably used”, “uses” for “employs”, “USA” for “USA.”
(§5) II. Preparation of "multivalent" receptor of the Selectin-IgG chimera was carried out by combining the respective chimera 1 μg/ml) with biotin labelled goat F(ab')2 anti-human IgG (Fc specific) and streptavidin-alkaline phosphatase diluted 1:1000 in 1% BSA-PBS (1 mM calcium) and incubating at 37° C. for 15 min. This allowed the soluble multivalent receptor complex to form.
(§6) III. Potential inhibitors such as compounds of formula I or II were allowed to react with the soluble receptor at 37° C. for 45 min. This test assumes that optimal binding, between the soluble phase receptor complex and the inhibitor (non natural ligand), would have occurred within this time frame. This solution was then placed in the microtiter wells that were prepared in step I. The plate was incubated at 37° C. for 45 minutes to allow the soluble receptor to bind to its natural ligand. In the presence of a strong inhibitor only a few receptors should be free to bind to the microtiter plate coated with the natural ligand.
(§7) The positive control is the signal produced by the soluble receptor when it is allowed to react with 2,3 sLe^x glycolipid in the microtiter wells in the absence of any inhibitor. This was considered 100% binding. […]

L-selectin = assay: ELISA: inhibition of L-selectin-IgG chimera binding to 2,3 sLe^x glycolipid; parameters: species or system human
From the text: as §1, §2, §3, §4
as §1, with “was employed” for “is preferably used”, “uses” for “employs”, “USA” for “USA.”
as §5, §6, §7

human neutrophils = assay: Reperfusion injury assay: complement-induced human neutrophil adhesion in rabbit isolated heart; parameters: species or system human neutrophils; New Zealand White rabbit heart; conditions: 4% normal human plasma, 0.1 mg/ml (0.001, 0.01 and 0.1 mg/ml tested), read-out: % Neutrophil Inhibition (neutrophil accumulation)
From the text: Experiments were done to determine the effectiveness of compound 7 in decreasing adhesion of human neutrophils in the rabbit isolated heart. Addition of the human plasma to the rabbit isolated heart results in activation of the complement components found within the plasma, which in turn promotes an increase in the neutrophil accumulation. This model is used to determine the effect of sLe^x analogues on inhibiting complement-induced neutrophil adhesion. Hearts from New Zealand White rabbits were excised, mounted on a modified Langendorff apparatus and perfused with Krebs-Heinseleit buffer. Cardiac functional parameters were monitored upon a Grass Model 79D polygraph machine. 4% normal human plasma (NHP) was added to the recirculating buffer. Ten minutes after the addition of the plasma, 13b (0.1 mg/ml) was added to the perfusate. After 15 minutes of perfusion with the plasma, 51-chromium labelled human neutrophils (1×10^5 /ml) were added to the perfusate and allowed to recirculate for an additional 15 minutes. At the end of this time the hearts were washed with fresh buffer to remove non-specifically bound neutrophils, dried and counted in a well type gamma-counter. A concentration response curve was generated using concentrations of 0.001, 0.01 and 0.1 mg/ml. […] Table 3 lists the results, expressed as the percent inhibition of neutrophil accumulation.

[1] = inhibition of binding to 2,3 sLex glycolipid

## CC(=O)NC1C(O)CC(OCCCCCCOC2OC(C)C(O)C(O)C2O)(C(=O)O)OC1C(O)C(O)CO [Compound 7, 1-O-α-Neu5Ac-(6-O-α-L-Fucopyranosyl)-Hexane]
E-selectin; FIG. 4, result in words
  inhibition of E-selectin binding to 2,3 sLe^x glycolipid: inhibit E-selectin binding to 2,3 sLe^x glycolipid
E-selectin; [1]
  IC50: > 4000 µM
L-selectin; FIG. 5 and FIG. 6, result in words
  inhibition of L-selectin binding to 2,3 sLe^x glycolipid: inhibit L-selectin binding in a concentration dependent manner
L-selectin; [1]
  IC50: 1000 to 3000 µM
Human neutrophils
  inhibition at 100 µg/mL: 30%

Source: patent US5658880A, “Sialic acid/fucose based medicaments” (Glycomed Incorporated, priority 1994, dated 1997)
